The MIC is the least concentration at which growth counts as inhibited. Read a low MIC as a more susceptible organism.

In brackets after ≈: the same amount, converted by molar mass.

Test systems include Candida krusei; Candida tropicalis; Candida krusei ATCC 6258; Candida albicans; Candida parapsilosis; Escherichia coli 170; Escherichia coli 09-280; Escherichia coli 5509; Escherichia coli 09-240.
Holding throughout (test): ≥ marks a high value that may be exact or a test limit, other limits are often not marked, values filed in µg/mL are converted to µM
Assay [1] has as its system Escherichia coli ATCC 25922.
The subject of assay [2] is Staphylococcus epidermidis RP62A.
The subject of assay [3] is Klebsiella pneumoniae KK3 9904.
For assay [4], the system named is Staphylococcus aureus NCTC 8325.
The test system of assay [5] is Batrachochytrium dendrobatidis JEL-197.
Assay [6] relates to Candida albicans ATCC 90028.
In assay [7] the test system is Candida parapsilosis ATCC 22019.
The subject of assay [8] is Proteus mirabilis ATCC 25933.
Assay [9] deals with Pseudomonas aeruginosa ATCC 27853.
In assay [10] the test system is Enterococcus faecalis ATCC 29212.
The test system of assay [11] is Enterobacter cloacae HNTCC 53001.
Assay [12] deals with Stenotrophomonas maltophilia CUN 3998-00.
The test system of assay [13] is Staphylococcus aureus CUN 3792-99.
The subject of assay [14] is Staphylococcus aureus ATCC 43300.
For assay [15], the system named is Pseudomonas aeruginosa CUN 4158-02.
For assay [16], the system named is Bordetella bronchiseptica CUN 11844-99.
Assay [17] deals with Acinetobacter baumannii ATCC 19606.
In assay [18] the test system is Staphylococcus aureus ATCC 25923.
For assay [19], the system named is Klebsiella pneumoniae 01-252.
Assay [20] relates to Staphylococcus aureus 06-051.
Assay [21] deals with Pseudomonas aeruginosa ATCC 9027.
For assay [22], the system named is Pseudomonas aeruginosa 5106.
Assay [23] concerns Klebsiella pneumoniae 01-239.
Assay [24] has as its system Enterobacter cloacae 14-262.
Assay [25] concerns Pseudomonas aeruginosa 3599.
The test system of assay [26] is Acinetobacter baumannii 5821.
The subject of assay [27] is Enterobacter cloacae 06-267.
Assay [28] has as its system Staphylococcus aureus 01-001.
The test system of assay [29] is Staphylococcus aureus ATCC 29213.
Assay [30] has as its system Escherichia coli ATCC 43827.
Assay [31] has as its system Candida albicans ATCC 14053.
The subject of assay [32] is Cronobacter sakazakii ATCC 29544.
Assay [33] relates to Klebsiella pneumoniae ATCC 700603.
The test system of assay [34] is Pseudomonas aeruginosa ATCC 15442.
Assay [35] relates to Staphylococcus aureus CCT 2580.
The test system of assay [36] is Escherichia coli CCT 1457.
For assay [37], the system named is Bacillus cereus ATCC 11778.
Assay [38] deals with Candida tropicalis ATCC 750.
Assay [39] deals with Staphylococcus epidermidis ATCC 12228.
Assay [40] has as its system Candida glabrata ATCC 2001.

Turning to `CC[C@H](C)[C@H](NC(=O)[C@@H]1CCCN1C(=O)[C@H](CC(C)C)NC(=O)[C@@H](N)Cc1ccccc1)C(=O)N[C@@H](CC(C)C)C(=O)N[C@@H](C)C(=O)N[C@@H](CO)C(=O)N[C@@H](CC(C)C)C(=O)N[C@@H](C)C(=O)N[C@@H](C)C(=O)N[C@@H](CCCCN)C(=O)N[C@@H](Cc1ccccc1)C(=O)NCC(=O)N1CCC[C@H]1C(=O)N[C@@H](CCCCN)C(=O)N[C@@H](CC(C)C)C(=O)N[C@@H](Cc1ccccc1)C(=O)N[C@H]1CSSC[C@@H](C(=O)O)NC(=O)[C@H](CCCCN)NC(=O)[C@H](CCCCN)NC(=O)[C@H]([C@@H](C)O)NC(=O)[C@H](C(C)C)NC(=O)[C@H](CC(C)C)NC1=O` [FLPILASLAAKFGPKLFCLVTKKC], the MIC with Candida krusei came out at 10 µM (≈ 26.1 µg/mL); in [1] it was 17 µM (≈ 44.3 µg/mL); in the assay on Candida tropicalis, 5 µM (≈ 13 µg/mL); in assay [2], 5 µM (≈ 13 µg/mL); in the assay on Candida krusei ATCC 6258, 5 µM (≈ 13 µg/mL); in the assay on Candida albicans it was 5 µM (≈ 13 µg/mL). Further, the MIC is no less than 40 µM in assay [3]; 10 µM (≈ 26.1 µg/mL) in the assay with Candida parapsilosis; 2 µM (≈ 5.21 µg/mL) in assay [4]; 12.5 µM (≈ 32.6 µg/mL) in assay [5]; 3 µM (≈ 7.82 µg/mL) in [6]; 5 µM (≈ 13 µg/mL) in assay [7]. Further, the MIC was no less than 40 µM in assay [8], 10 µM (≈ 26.1 µg/mL) in assay [9], 5 µM (≈ 13 µg/mL) in assay [10] and 10 µM (≈ 26.1 µg/mL) in assay [11].

On to `NCCCC[C@H](NC(=O)[C@H](Cc1ccccc1)NC(=O)[C@H](CCCN=C(N)N)NC(=O)[C@H](CCCN=C(N)N)NC(=O)[C@H](CS)NC(=O)CN)C(=O)N[C@@H](CCCCN)C(=O)N[C@@H](Cc1ccccc1)C(=O)N[C@@H](CCCCN)C(=O)N[C@@H](CCCCN)C(=O)N[C@@H](Cc1c[nH]c2ccccc12)C(=O)N[C@@H](CCCN=C(N)N)C(=O)N[C@@H](Cc1ccc(O)cc1)C(=O)N[C@@H](CCCN=C(N)N)C(=O)NCC(=O)N[C@@H](CCCN=C(N)N)C(=O)N[C@@H](Cc1ccccc1)C(=O)N[C@@H](Cc1c[nH]c2ccccc12)C(=O)N[C@@H](Cc1ccccc1)C(=O)N[C@@H](Cc1c[nH]c2ccccc12)C(=O)N[C@@H](CS)C(=O)N[C@@H](Cc1ccccc1)C(=O)NCC(N)=O` [GCRRFKKFKKWRYRGRFWFWCFG], for which the MIC was 20.3 µM (≈ 64 µg/mL) in [12]; 20.3 µM (≈ 64 µg/mL) in assay [1]; 20.3 µM (≈ 64 µg/mL) in [13]; 10.2 µM (≈ 32 µg/mL) in [14]; no less than 40.7 µM in assay [15]; 10.2 µM (≈ 32 µg/mL) in assay [16]. Besides, the MIC in [17] amounted to 20.3 µM (≈ 64 µg/mL); in [9], 40.7 µM (≈ 128 µg/mL); in [18], 20.3 µM (≈ 64 µg/mL).

As for `CC[C@H](C)[C@H](NC(=O)[C@H](C)NC(=O)[C@H](CC(N)=O)NC(=O)[C@H](CCCCN)NC(=O)[C@@H](NC(=O)CNC(=O)[C@H](CCC(=O)O)NC(=O)[C@H](Cc1c[nH]c2ccccc12)NC(=O)[C@H](CC(C)C)NC(=O)[C@H](CCCCN)NC(=O)CNC(=O)[C@H](Cc1c[nH]c2ccccc12)NC(=O)[C@H](Cc1ccccc1)NC(=O)CN)C(C)C)C(N)=O` [GFWGKLWEGVKNAI], the MIC in [19] is no less than 32 µM; in assay [1], 10 µM (≈ 16 µg/mL); in [20], 4 µM (≈ 6.42 µg/mL); in assay [21], 10 µM (≈ 16 µg/mL); against Escherichia coli 170, no less than 32 µM; with Escherichia coli 09-280, no less than 32 µM. The MIC against Escherichia coli 5509 is no less than 32 µM; in assay [22], no less than 32 µM; in assay [23], 12 µM (≈ 19.2 µg/mL); in assay [24] it was 14 µM (≈ 22.5 µg/mL); in [25] it was no less than 32 µM; in assay [26], 7 µM (≈ 11.2 µg/mL). For the same compound, the MIC is no less than 32 µM in [27]; 4 µM (≈ 6.42 µg/mL) in [28]; 4 µM (≈ 6.42 µg/mL) in [29]; greater than 32 µM in assay [9]; 14 µM (≈ 22.5 µg/mL) in the assay with Escherichia coli 09-240; 15 µM (≈ 24.1 µg/mL) in assay [18].

With `CC[C@H](C)[C@H](N)C(=O)N[C@@H](CC(N)=O)C(=O)N[C@@H](Cc1c[nH]c2ccccc12)C(=O)N[C@@H](CC(C)C)C(=O)N[C@@H](CCCCN)C(=O)N[C@@H](CC(C)C)C(=O)NCC(=O)N[C@@H](CCCCN)C(=O)N[C@@H](CCSC)C(=O)N[C@H](C(=O)N[C@H](C(=O)N[C@@H](CC(=O)O)C(=O)N[C@@H](C)C(=O)N[C@@H](CC(C)C)C(N)=O)[C@@H](C)CC)C(C)C` [INWLKLGKMVIDAL], the MIC amounted to 8 µM (≈ 12.9 µg/mL) in [30]; 8 µM (≈ 12.9 µg/mL) in assay [1]; 8 µM (≈ 12.9 µg/mL) against Candida krusei ATCC 6258; 16 µM (≈ 25.8 µg/mL) in [31]; 16 µM (≈ 25.8 µg/mL) in assay [32]; 4 µM (≈ 6.45 µg/mL) in [33]. Also, the MIC in assay [34] is no less than 38.4 µM; in assay [35], 2.48 µM (≈ 4 µg/mL); in [36], 4.96 µM (≈ 8 µg/mL); in assay [37] it was 4.96 µM (≈ 8 µg/mL); in [38], 2 µM (≈ 3.23 µg/mL); in assay [7], 16 µM (≈ 25.8 µg/mL). Also, the MIC in assay [29] came to 4 µM (≈ 6.45 µg/mL); in [39], 4 µM (≈ 6.45 µg/mL); in assay [9], 8 µM (≈ 12.9 µg/mL); in [40], 8 µM (≈ 12.9 µg/mL).
